According to publication PMC5508574 (Nature biotechnology, 2016):

What was measured:
NCI-H3122 cell line = assay: PRISM compound assay, mixture of 25 barcoded lung adenocarcinoma cell lines; assay type: cell-based, human; details: 0–10 μM, 5 days, in mixture
NCI-H2228 = assay: as above; assay type: cell-based, human; details: 0–10 μM, 5 days, in mixture
[1] = tested on: BRAF-mutant vs BRAF wild-type cell lines; assay: PRISM, 100 barcoded cell lines in 4 pools of 25, BRAF genotype comparison; details: AUC of viability, 100 cell lines, PRISM (and Nuclei, ATP)
[2] = tested on: 4 EGFR-mutant cell lines in the pool; assay: PRISM compound assay, mixture of 25 barcoded lung adenocarcinoma cell lines; assay type: cell-based, human; details: 0–10 μM, 5 days, viability relative to DMSO
[3] = tested on: 25 barcoded lung adenocarcinoma cell lines in mixture; assay: as above; assay type: cell-based, human; details: 0–10 μg/ml, 5 days, viability relative to DMSO

## COc1cc(N2CCC(N3CCN(C)CC3)CC2)ccc1Nc1ncc(Cl)c(Nc2ccccc2S(=O)(=O)C(C)C)n1 [NVP-TAE-684]
NCI-H3122 cell line
  Sensitivity of NCI-H3122 (EML4-ALK translocation): sensitive
NCI-H2228
  Sensitivity of NCI-H2228 (different EML4-ALK translocation): intrinsic resistance

## CCCS(=O)(=O)Nc1ccc(F)c(C(=O)c2c[nH]c3ncc(Cl)cc23)c1F [PLX4720]
[1]
  Differential sensitivity of BRAF-mutant vs BRAF wild-type cell lines: hypersensitivity

## C#Cc1cccc(Nc2ncnc3cc(OCCOC)c(OCCOC)cc23)c1 [erlotinib]
[2]
  Killing of EGFR-mutant cell lines in the pool: dose-dependent killing

## COc1ccc(C[C@H](N)C(=O)N[C@H]2[C@@H](O)[C@H](n3cnc4c(N(C)C)ncnc43)O[C@@H]2CO)cc1 [puromycin]
[3]
  Pattern of cell killing across the pool: uniform killing across the pool

## CNC(=O)c1cc(Oc2ccc(NC(=O)Nc3ccc(Cl)c(C(F)(F)F)c3)cc2)ccn1 [sorafenib]
[1]
  Differential sensitivity of BRAF-mutant vs BRAF wild-type cell lines: No significant differential sensitivity
